Reference: patent publication US9018244B2, “Benzopyran compounds, compositions and uses thereof” (Olema Pharmaceuticals, Inc., priority 2011, dated 2015)

Tested on: MCF-7 HER2/neu Clone 18 xenograft
Assay: Mammary tumor xenograft study
Assay type: in vivo, ovariectomized athymic nude mice
Settings: 100 mg/kg twice daily by oral gavage, mice implanted with estrogen pellets
Description: FIG. 13. […] A) Percent change in tumor volume of human MCF-7 HER2/neu clone 18 xenografts in ovariectomized athymic nude mice implanted with estrogen pellets and treated with either tamoxifen (by oral gavage), fulvestrant (Faslodex) by s.c. injection, or OP-1074 (by oral gavage). B) Weights of the animals treated as above. C) Waterfall plot of final tumor volumes compared with volumes at the start of treatment.
The purpose of this study is to examine the ability of OP-1074, to slow or shrink a tamoxifen resistant tumor (MCF-7 HER2/neu Clone 18) xenograft growing on ovariectomized athymic nude mice under stimulation from exogenous estrogen. Clone 18 cells grown in culture are implanted along with 0.18 mg estradiol/90 day release pellets (Innovative Research, Sarasota Fla.) into 55 mice to initiate the experiment. When the tumors have reached 250 cubic millimeters the mice are divided into four groups of 10 mice each and dosing initiated. The four groups are:
1) No hormonal treatment—this group receives daily gavage with vehicle.
2) Tamoxifen citrate 100 mg/kg daily by oral gavage in vehicle.
3) Faslodex 100 mg/kg delivered daily by subcutaneous injection.
4) OP-1074 100 mg/kg twice daily by oral gavage in vehicle with the exception of two weekends in which dosing was once daily.

With CC1=C(c2ccc(O)cc2)[C@H](c2ccc(OCCN3CC[C@@H](C)C3)cc2)Oc2cc(O)ccc21 [OP-1074, (2S)-3-(4-hydroxyphenyl)-4-methyl-2-(4-{2-[(3R)-3-methylpyrrolidin-1-yl]ethoxy}phenyl)-2H-chromen-7-ol] the “Tumor volume change of xenografts” value was “rapid and complete regression”.
